The test system of data set [1] is mice challenged by heat-killed Escherichia coli. Kind of data set: LPS and TNF-α levels in blood of mice challenged by heat-killed E. coli. It counts as in vivo, Kunming mice. Particulars: for LPS level in mice blood / TNF-α level in mice blood: 40 mg/kg 10 min after heat-killed E. coli 1.1×10^10 CFU/Kg, various time points, p<0.05 or p<0.01 vs control. As for the experimental part:
8.1 Methods: Supernatant of heat-killed E. coli was prepared according to 2.3.3 items of embodiment 2; absorbance values of the supernatant were assayed at 600 nm (OD600 value 1.0≈1.0×10^10 CFU/ml); a total of 84 Kunming mice, half male and half female, were divided into three groups randomly: heat-killed E. coli control group, KA (40 mg/kg) plus heat-killed E. coli group and KB (40 mg/kg) plus heat-killed E. coli group; each group has 28 mice; after animals were weighed, heat-killed E. coli control group was injected with heat-killed E. coli(1.1×10^10 CFU/Kg); the other two groups were respectively injected with KA or KB (40 mg/kg) at 10 min after injection of heat-killed E. coli(1.1×10^10 CFU/Kg); the total injection of each animal was 200 μl per 20 g body weight; orbital venous blood of mice was collected at time point of 0, 2, 4, 8, 12, 24, 48 and 72 h after injection; LPS level was assayed by kinetic turbidimetric limulus test, and TNF-α was assayed by ELISA.
28.1 Methods: Kunming mice were randomly divided into two groups, and there were 56 mice in each group; heat-killed E. coli was diluted to make 1.0×10^9 CFU/ml suspension, and KB was dissolved to 6 mg/ml with sterile saline; caudal vein injection was adopted; medium group was injected with heat-killed Escherichia coli (0.2 ml per 20 g body weight) and sterile saline (0.2 ml per 20 g body weight); KB treatment groups were injected with heat-killed E. coli suspension S (0.2 ml per 20 g body weight) and KB (0.2 ml per 20 g body weight). Orbital venous blood of mice in medium group and KB treatment group was collected at time point of 0, 4, 8, 12, 24, 48 and 72 h after injection, the specific methods are: mice were killed by cervical dislocation, and immersed in 75% ethanol for skin degerming; the eye of mouse was removed, and blood was collected into a 1.5 ml EP tube; 10 μl blood were added into 190 μl nonpyrogenic water; solution was kept standing for 5-10 min for neutral sedimentation, and centrifuged at 1000 rpm for 10 min; the supernatant was transferred into a new centrifuge tube and stored at −20° C. for further detection; the rest was keep standing until aggregation and serum precipitation, then centrifuged at 3000 rpm for 10 min; the supernatant was transferred into a new centrifuge tube and stored at −20° C. for further detection;
(1) Detection of LPS levels in plasma: 10 μl plasma sample was dissolved in 190 μl sterile saline and mixed. Detection of LPS levels was performed according to the operating procedure of EDS-99 Bacterial Endotoxin Detecting system. Result was expressed by means of mean±standard deviation.
(2) Detection of serum cytokine levels: Because of the small blood volume of mouse, serum was diluted 2 times for detection. Detection of the TNF-α concentration was performed according to the manufacturer's instructions of ELISA kit. Result was expressed by means of mean±standard deviation.

The nature of data set [2]: Major organ pathological morphous of mice after KB injection. It counts as in vivo, Kunming mice. Particulars: KB 60 mg/kg single dose; 24, 48 and 72 h. On the procedure:
30.1 Methods: A total of 16 Kunming mice were randomly divided into four groups; each group has 4 mice, half male and half female; for the purpose of experiment a medium group and a KB (60 mg/kg) treatment group were established; mice in medium group were immediately killed by cervical dislocation, and KB treatment group were killed separately killed at 24, 48 and 72 h after injection; the cavitas thoracis and abdominal cavity of mice were cut open; organs such as heart, liver, lung, kidney and intestine were moved out, rinsed with sterile saline, plunged into 10% formaldehyde solution for fixing, dehydrated, embedded in paraffin, HE dyed and mounted; organ histopathological changes were observed under a light microscope.

Another data set concerns RAW264.7 cells. Kind of data set: Western blot of IκB-α and p38 phosphorylation in RAW264.7 cells. It counts as cell-based, murine. On the procedure:
Extraction of cytoplasmic protein: RAW264.7 cells were diluted to 1×10^6/ml in DMEM supplemented with 10% (v/v) NCS; 5 ml of the above suspension was transferred into cell culture bottles and cultured at 37° C. in a 5% CO2 humidified incubator for 4 h; a preliminary experiment was first performed, in which RAW264.7 cells were stimulated by LPS (100 ng/ml), CpG DNA (10 μg/ml), TNF-α (50 ng/ml) or IL-1β (50 ng/ml) for 15, 30, 45 and 60 min respectively; for the purpose of formal experiment a medium group, a KB control group, stimulation group (LPS, CpG DNA, TNF-α or IL-1β) and a KB treatment group (LPS+KB group, CpG DNA+KB group, TNF-α+KB group and IL-1β+KB group) were established; no reagent was added in medium group; KB control group was only added with KB (200 μM); stimulation group was added with LPS (100 ng/ml), CpG DNA (10 μg/ml), TNF-α (50 ng/ml) or IL-1β (50 ng/ml); KB treatment group was added with KB (100, 200 μM) in the meantime of adding LPS, CpG DNA, TNF-α or IL-1β; the duration time of cell culture was based on the preliminary experiment (30 min); cells were washed with PBS and centrifuged to collect cells; supernatant was sucked and discarded; the cell pellet was collected for further experiment; each 20 μl cell pellet was added with 200 μl cytoplasm protein extraction reagents supplemented with PMSF, shook vigorously for 5 seconds to completely suspend and disperse the cell pellet, chilled for 10 to 15 min in an ice bath, centrifuged at 12,000 g at 4° C. for 5 min; the supernatant was instantly transferred into a precooled plastic tube, which was the cytoplasmic protein obtained by extraction;
(3) Sample preparation: Protein sample was mixed with 5× concentrated loading buffer in proportion of 4:1, and denatured at 100° C. for 5 min;
(5) Loading: Sample loading volume was adjusted according to protein concentration to ensure 20 μg protein content of each sample; samples were loaded with microsyringe (5 μl protein molecular weight marker were loaded); […]
For orientation: Immunoblotting shows a protein as a band on a membrane.

Setting [3] is: KB 100 and 200 μM, 30 min, western blot.

As to `O=C(CCc1ccc(O)c(O)c1)NCCCNCCCCNCCCNC(=O)CCc1ccc(O)c(O)c1` [KA, Kukoamine A], in data set [1], the “LPS level in mice blood” value was “significantly decreased” and the “TNF-α level in mice blood” value is on record as “significantly decreased”.
Take `NCCCN(CCCCNCCCNC(=O)CCc1ccc(O)c(O)c1)C(=O)CCc1ccc(O)c(O)c1` [KB, Kukoamine B]: in data set [2], the cardiac muscle histopathology result is “no cell necrosis and inflammatory cell infiltration”; the “changes in major organs of mice” value was “no significant changes in major organs”; the kidney histopathology result was “normal morphology and no obvious changes”; the liver histopathology entry was “no pathological changes such as cellular swelling and necrosis”. Moreover, in data set [2], the lung histopathology entry was “no congestion and inflammatory cell infiltration”. Moreover, in data set [1], the “LPS level in mice blood” value is on record as “significantly decreased” and the “TNF-α level in mice blood” value is reported as “significantly decreased”. For the same molecule, in data set [1] (sublethal heat-killed E. coli, KB 6 mg/ml, 0.2 ml per 20 g, 4, 8, 12, 24 and 48 h, p<0.05 or p<0.01), the “LPS levels in mice plasma vs heat-killed E. coli control group” value is listed as “significantly lower”. Besides, the “TNF-α levels in mice serum vs heat-killed E. coli control group” value in data set [1] (sublethal heat-killed E. coli, KB 6 mg/ml, 0.2 ml per 20 g, 4, 8, 12 and 24 h, p<0.01) was “significantly lower”. For the same molecule, in the data set on RAW264.7 cells (KB 200 μM alone vs medium group), the “expression of IκB-α and p-IκB-α, KB alone” value is given as “had no influence”. In the data set on RAW264.7 cells (setting [3]), the “degradation of IκB-α and up-regulated expression of p-IκB-α induced by LPS and CpG DNA” value is recorded as “both were significantly inhibited”; the “p-p38 expression induced by LPS and CpG DNA” value was “significantly inhibited”.
